Results from ChEMBL document CHEMBL1156824, “Physicochemical space for optimum oral bioavailability: contribution of human intestinal absorption and first-pass elimination” (J Med Chem, 2010).

Key:
Homo sapiens [1] = test: Oral bioavailability in human; details: in vivo
Homo sapiens [2] = species: Homo sapiens; test: Hepatic clearance in human; details: in vivo
clinical = details: human, in vivo
Homo sapiens [3] = species: Homo sapiens; test: Fraction escaping hepatic elimination in human; details: in vivo
[4] = Volume of distribution at steady state in human; details: in vivo

Structure (SMILES) | F_fraction (Homo sapiens [1]) | CL (Homo sapiens [2]) | CL renal (clinical) | Fh (Homo sapiens [3]) | Vd [4]
CCCCc1nc(Cl)c(CO)n1Cc1ccc(-c2ccccc2-c2nn[nH]n2)cc1 [LOSARTAN] | 0.36 | 7.3 mL/min/kg |  |  | 
CC[C@H](C)C(=O)O[C@H]1C[C@@H](C)C=C2C=C[C@H](C)[C@H](CC[C@@H]3C[C@@H](O)CC(=O)O3)[C@H]21 [LOVASTATIN] |  | 6.5 mL/min/kg | 0.7 mL/min/kg | 0.72 | 
CN(C)C(=N)N=C(N)N [METFORMIN] |  |  |  | 1 | 
CN(C)c1ccc(O)c2c1C[C@H]1C[C@H]3[C@H](N(C)C)C(O)=C(C(N)=O)C(=O)[C@@]3(O)C(O)=C1C2=O [MINOCYCLINE] | 1 | 1.1 mL/min/kg | 0.1 mL/min/kg |  | 
CCc1nn(CCCN2CCN(c3cccc(Cl)c3)CC2)c(=O)n1CCOc1ccccc1 [NEFAZODONE] | 0.19 | 7.1 mL/min/kg | 0.4 mL/min/kg |  | 
COC(=O)C1=C(C)NC(C)=C(C(=O)OCCN(C)Cc2ccccc2)C1c1cccc([N+](=O)[O-])c1 (stereo not given) [NICARDIPINE] |  |  |  |  | 1 L/kg
COC(=O)C1=C(C)NC(C)=C(C(=O)OC)C1c1ccccc1[N+](=O)[O-] [NIFEDIPINE] | 0.5 |  |  |  | 
CNC(=C[N+](=O)[O-])NCCSCc1csc(CN(C)C)n1 [NIZATIDINE] |  | 2.5 mL/min/kg |  |  | 1 L/kg
COc1ccc2[nH]c([S+]([O-])Cc3ncc(C)c(OC)c3C)nc2c1 (stereo not given) [OMEPRAZOLE] | 0.53 | 8.3 mL/min/kg | 0.1 mL/min/kg |  | 
Nc1nc2c(ncn2CCC(CO)CO)c(=O)[nH]1 [PENCICLOVIR] | 0.05 | 1.7 mL/min/kg |  |  | 
CCCN(CCC)S(=O)(=O)c1ccc(C(=O)O)cc1 [PROBENECID] | 1 | 0.2 mL/min/kg |  |  | 
CCOc1ccccc1OC(c1ccccc1)C1CNCCO1 (stereo not given) [REBOXETINE] | 0.95 | 0.8 mL/min/kg | 0.041 mL/min/kg |  | 
CO[C@H]1/C=C/O[C@@]2(C)Oc3c(C)c(O)c4c(c3C2=O)C2=NC3(CCN(CC(C)C)CC3)NC2=C(NC(=O)/C(C)=C\C=C\[C@H](C)[C@H](O)[C@@H](C)[C@@H](O)[C@@H](C)[C@H](OC(C)=O)[C@@H]1C)C4=O [RIFABUTIN] | 0.2 | 2 mL/min/kg |  | 0.91 | 
Cc1nc2n(c(=O)c1CCN1CCC(c3noc4cc(F)ccc34)CC1)CCCC2 [RISPERIDONE] | 0.66 |  | 0.2 mL/min/kg |  | 
CC(C)c1nc(N(C)S(C)(=O)=O)nc(-c2ccc(F)cc2)c1/C=C/[C@@H](O)C[C@@H](O)CC(=O)O [ROSUVASTATIN] | 0.2 | 7.7 mL/min/kg |  |  | 
CC(C)NCC(O)c1ccc(NS(C)(=O)=O)cc1 (stereo not given) [SOTALOL] | 0.95 | 0.3 mL/min/kg |  |  | 

Structure (SMILES) | F_fraction (Homo sapiens [1]) | CL (Homo sapiens [2]) | CL renal (clinical) | Fh (Homo sapiens [3]) | Vd [4]
C[C@@H]1CN(c2c(F)c(N)c3c(=O)c(C(=O)O)cn(C4CC4)c3c2F)C[C@H](C)N1 [SPARFLOXACIN] | 0.92 | 2.3 mL/min/kg |  |  | 
O=C1C(CC[S+]([O-])c2ccccc2)C(=O)N(c2ccccc2)N1c1ccccc1 (stereo not given) [SULFINPYRAZONE] | 0.93 |  |  |  | 
CCOc1ccccc1OCCN[C@H](C)Cc1ccc(OC)c(S(N)(=O)=O)c1 [TAMSULOSIN] | 1 | 0.5 mL/min/kg | 0.1 mL/min/kg |  | 
Cn1c(=O)c2[nH]cnc2n(C)c1=O.O [THEOPHYLLINE] |  | 0.8 mL/min/kg | 0.1 mL/min/kg |  | 
Cc1ccsc1C(=CCCN1CCC[C@@H](C(=O)O)C1)c1sccc1C [TIAGABINE] |  | 1.6 mL/min/kg | 0.032 mL/min/kg |  | 
CCS(=O)(=O)CCn1c([N+](=O)[O-])cnc1C [TINIDAZOLE] |  | 0.5 mL/min/kg | 0.1 mL/min/kg |  | 
CCCCNC(=O)NS(=O)(=O)c1ccc(C)cc1 [TOLBUTAMIDE] |  |  | 0.0002 mL/min/kg | 0.99 | 
Cc1cccc(Nc2ccncc2S(=O)(=O)NC(=O)NC(C)C)c1 [TORSEMIDE] |  | 0.4 mL/min/kg | 0.1 mL/min/kg |  | 
COc1cccc(C2(O)CCCCC2CN(C)C)c1 (stereo not given) [TRAMADOL] |  | 5.5 mL/min/kg | 1 mL/min/kg |  | 
O=c1n(CCCN2CCN(c3cccc(Cl)c3)CC2)nc2ccccn12 [TRAZODONE] |  | 1.4 mL/min/kg | 0.0018 mL/min/kg |  | 
COc1ccc(C(CN(C)C)C2(O)CCCCC2)cc1 (stereo not given) [VENLAFAXINE] | 0.42 | 13.4 mL/min/kg | 0.6 mL/min/kg |  | 
CC(=O)CC(c1ccccc1)c1c(O)c2ccccc2oc1=O (stereo not given) [WARFARIN] |  | 0.1 mL/min/kg | 0.0011 mL/min/kg |  | 
O=C(NCCNCC(O)COc1ccc(O)cc1)N1CCOCC1 (stereo not given) [XAMOTEROL] | 0.05 | 1.1 mL/min/kg |  |  | 
Nc1ccn([C@H]2CC[C@@H](CO)O2)c(=O)n1 [ZALCITABINE] |  | 1.1 mL/min/kg | 4.5 mL/min/kg | 0.95 | 
CC(=O)N[C@H]1[C@H]([C@H](O)[C@H](O)CO)OC(C(=O)O)=C[C@@H]1N=C(N)N [ZANAMIVIR] | 0.03 | 0.2 mL/min/kg |  |  | 
Cc1ccc(-c2nc3ccc(C)cn3c2CC(=O)N(C)C)cc1 [ZOLPIDEM] | 0.72 | 4.3 mL/min/kg | 0.043 mL/min/kg |  | 
